Measurements reported in patent US20040076974A1, “Liver necrosis predictive genes” (priority 2002, published 2004).
Where “and” joins values, the source holds several entries; their conditions need not be identical. Equal entries are not always repeated. Where two headings read alike, the source gives them in different places.

What was measured:
Sprague Dawley rats = details: rat, in vivo, ip; for Score (histopathology liver necrosis severity score): Sprague Dawley, 72 h
Method in brief: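 Toxicity calls (necrosis present or absent at 72 h) and histopathology scores were correlated with tissue gene expression from Crl:CD Sprague Dawley rats. Animals, usually 3 treated with compound by i.p. route and 3 given vehicle, were killed at 6, 24 or 72 h and tissues frozen immediately in liquid nitrogen.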

[1] = system: toxicologically relevant rat genes (rat CT array); details: rat, in vivo

`CC/C(=C(\c1ccccc1)c1ccc(OCCN(C)C)cc1)c1ccccc1` [tamoxifen] was tested, and the “Score (histopathology liver necrosis severity score)” value (Sprague Dawley rats; 50 mg/kg) was 1, the “Score (histopathology liver necrosis severity score)” value (Sprague Dawley rats; 200 mg/kg) was 1 and the “Liver Necrosis” value (Sprague Dawley rats; 50 mg/kg) was “no”. For the same compound, the “Liver Necrosis” value (Sprague Dawley rats; 200 mg/kg) was “no”, the 14-3-3 zeta expression [1] was 1.06 and 1.114 and 1.024 and 1.069 and 1.078 and the “60S ribosomal protein L6 expression” value [1] was 1.136 and 1.258 and 1.391 (2×) and 1.1. For the same compound, the “Adenine nucleotide translocator 1 expression” value [1] was 0.8038 and 0.8428 and 1.025 and 0.963 and 1.349, the “Alpha-1 microglobulin/bikunin precursor (Ambp) expression” value [1] was 1.137 and 1.13 and 1.288 and 1.072 and 1.505 and the Alpha-tubulin expression [1] was 0.9413 and 0.9605 and 0.9619 and 0.9049 and 1.355. The “Aquaporin-3 (AQP3) expression” value [1] was 0.9813 and 0.7741 and 0.9894 and 0.9996 and 0.8864, the Beta-actin expression [1] was 0.7738 and 0.942 and 0.6998 and 1.204 and the “Beta-actin, sequence 2 expression” value [1] was 0.7894 and 1.034 and 1.023 and 0.5893. The “Beta-tubulin, class I expression” value [1] was 0.7904 and 0.7769 and 1.118 and 1.041 and 1.416, the Biliverdin reductase expression [1] was 1.244 and 1.177 and 0.9432 and 0.9712 and the CDK108 expression [1] was 0.7646 and 0.771 and 0.9296 and 1.067 and 0.6341. The “Calpactin I heavy chain expression” value [1] was 1.24 and 0.9779 and 0.9969 and 0.9558 and 1.503, the “Calpain 2 expression” value [1] was 1.074 and 1.028 and 1.069 and the “Cathepsin B expression” value [1] was 1.062 and 1.634 and 1.119 and 0.9643 and 1.263. The “Cathepsin L, sequence 2 expression” value [1] was 0.793 and 1.456 and 0.963 and 0.9594, the “Cathepsin S expression” value [1] was 0.8837 and 1.721 and 1.401 and the “Cyclin D1 expression” value [1] was 0.9348 and 0.6137 and 1.116 and 1.1 and 0.745. The “Cystatin C expression” value [1] was 0.7987 and 0.8206 and 1.149 and 1.058 and 1.138, the “Dynamin-1 (D100) expression” value [1] was 0.974 and 0.8723 and 0.9822 and 1.024 and 0.9733 and the “Elongation factor-1 alpha expression” value [1] was 1.144 and 1.188 and 1.098 and 0.9078 and 1.206. For the same compound, the “Equilbrative nitrobenzylthioinosine-sensitive nucleoside transporter expression” value [1] was 1.073 and 0.9454 and 0.9032 and 1.004 and 0.9505, the “F1-ATPase beta subunit expression” value [1] was 0.7234 and 0.6975 and 0.9473 and 0.9602 and 1.189 and the “Gamma-actin, cytoplasmic expression” value [1] was 0.982 and 0.9804 and 1.031 and 1.54. For the same compound, the “Glutathione S-transferase theta-1 expression” value [1] was 0.8059 and 0.9415 and 0.8757 and 1.133, the “High affinity IgE receptor gamma chain (FcERIgamma) expression” value [1] was 0.9724 and 1.018 and 1.021 and 1.327 and the Hypoxanthine-guanine phosphoribosyltransferase expression [1] was 0.7468 and 0.8598 and 0.8651 and 0.806 and 0.9251. For the same compound, the “IgE binding protein expression” value [1] was 1.306 and 1.678 and 1.071 and 1.114 and 1.302, the “JNK1 stress activated protein kinase expression” value [1] was 0.666 and 0.9165 and 0.9272 and 0.962 and 0.7174 and the “Melanoma-associated antigen ME491 expression” value [1] was 1.025 and 1.238 and 1.062 and 1.098 and 1.559. For the same compound, the “Multidrug resistant protein-1 expression” value [1] was 1.082 and 1.58 and 1.118 and 1.184 and 0.9501, the “Multidrug resistant protein-2 expression” value [1] was 0.8809 and 1.298 and 1.165 and 1.156 and 0.7835 and the “N-hydroxy-2-acetylaminofluorene sulfotransferase (ST1C1) expression” value [1] was 1.02 and 0.9797 and 0.9522 and 1.016. For the same compound, the “NADP-dependent isocitrate dehydrogenase, cytosolic expression” value [1] was 0.865 and 1.545, the NIPK expression [1] was 1.08 and 1.011 and 0.9454 and 0.9651 and the “Organic cation transporter 3 expression” value [1] was 0.8883 and 1.096 and 1.263. The Ornithine decarboxylase expression [1] was 0.8334 and 1.039 and 1.055 and 1.097 and 1.469, the Osteoactivin expression [1] was 1.459 and 1.435 and 0.9157 and 0.9271 and 1.449 and the “Paraoxonase 1 expression” value [1] was 0.7398 and 0.6886 and 1.221 and 1.224. For the same compound, the “Phase-1 RCT-24 expression” value [1] was 0.8968, the “Phase-1 RCT-39 expression” value [1] was 1.47 and 0.9339 and 0.9947 and the “Phase-1 RCT-43 expression” value [1] was 0.9905 and 0.9704 and 0.9375. For the same compound, the “Phase-1 RCT-57 expression” value [1] was 0.8991 and 0.6888, the “Phase-1 RCT-78 expression” value [1] was 0.8505 and 0.8237 and the “Phase-1 RCT-81 expression” value [1] was 1.102. For the same compound, the “Phase-1 RCT-107 expression” value [1] was 0.9169 and 0.6899, the “Phase-1 RCT-109 expression” value [1] was 0.6916 and the “Phase-1 RCT-117 expression” value [1] was 0.9421 and 0.9667. The “Phase-1 RCT-138 expression” value [1] was 0.9832, the “Phase-1 RCT-144 expression” value [1] was 0.8629 and the “Phase-1 RCT-146 expression” value [1] was 0.9994. The “Phase-1 RCT-149 expression” value [1] was 1.1 and 0.8836, the “Phase-1 RCT-154 expression” value [1] was 0.8651 and 0.9418 and 0.9917 and the “Phase-1 RCT-156 expression” value [1] was 1.103. The “Phase-1 RCT-164 expression” value [1] was 0.9378 and 0.8318 and 0.9484, the “Phase-1 RCT-173 expression” value [1] was 0.7045 and 0.5898 and the “Phase-1 RCT-174 expression” value [1] was 0.7203 and 0.6816. The “Phase-1 RCT-179 expression” value [1] was 1.2 and 0.9105 and 1.544, the “Phase-1 RCT-192 expression” value [1] was 0.999 and the “Phase-1 RCT-207 expression” value [1] was 0.9742. The “Phase-1 RCT-211 expression” value [1] was 0.8217 and 0.6431, the “Phase-1 RCT-213 expression” value [1] was 0.8004 and the “Phase-1 RCT-227 expression” value [1] was 0.8538. For the same compound, the “Phase-1 RCT-260 expression” value [1] was 0.974 and 0.93, the “Phase-1 RCT-290 expression” value [1] was 0.5411 and 0.6526 and the “Poly(ADP-ribose) polymerase expression” value [1] was 0.8263 and 1.077 and 0.8901 and 0.8489 and 1.291. The “Pyruvate kinase, muscle expression” value [1] was 1.141 and 1.584 and 1.146 and 1.081 and 0.8598, the “Ribosomal protein L13A expression” value [1] was 1.178 and 0.9908 and 0.8711 and the “Ribosomal protein S8 expression” value [1] was 1.069 and 1.043 and 1.983 and 1.441. For the same compound, the “Ribosomal protein S17 expression” value [1] was 0.9563 and 0.9932 and 1.772 and 1.494, the Stathmin expression [1] was 0.8925 and 1.067 and 1.025 and 0.9726 and 0.8514 and the “Thioredoxin-1 (Trx1) expression” value [1] was 0.9876 and 1.146 and 1.089 and 0.8216 and 0.7283. The “Thymosin beta-10 expression” value [1] was 0.8732 and 1.234 and 1.068 and 0.8379, the “Tissue plasminogen activator expression” value [1] was 0.8347 and 0.7599 and 0.9719 and 1.009 and 1.011 and the “Transitional endoplasmic reticulum ATPase expression” value [1] was 0.9168 and 0.8359 and 1.015 and 0.9607 and 1.436. For the same compound, the “Ubiquitin conjugating enzyme (RAD 6 homologue) expression” value [1] was 0.9338 and 0.984 and 0.8685 and 0.6936 and 1.384, the “Uncoupling protein 2 expression” value [1] was 1.105 and 1.472 and 1.007 and 0.9206 and the “Zinc finger protein expression” value [1] was 0.8577 and 1.115 and 0.9673 and 0.8957 and 1.145. For the same compound, the p55CDC expression [1] was 1.198 and 1.343 and 1.163 and 1.148 and 0.9509, the “{Phase-1 RCT 98} expression” value [1] was 0.8993 and 0.665 and 1.028 and 1.025 and the “{Ribosomal protein 16} expression” value [1] was 1.136 and 1.255 and 1.519.
